# Measured values taken from patent US20230091225A1, “Bifunctional chimeric heterocyclic compounds for targeted degradation of androgen receptors and use thereof” (HINOVA PHARMACEUTICALS INC., priority 2019, published 2023).
# Read-outs that look alike come from different tables or passages of the source.
# What was measured:
# LNCaP/AR cells = test: Inhibition of proliferation of LNCaP/AR prostate cancer cells (CCK-8); type: cell-based
# androgen receptor (AR) = biological target: T1, androgen receptor (AR) (Homo sapiens, UniProt P10275); test: Degradation of androgen receptor (AR) protein in VCaP cells by ELISA; type: cell-based; details: for inhibition at 0.1 µM: read-out: % degradation
# T1 sequence (P10275 1-920): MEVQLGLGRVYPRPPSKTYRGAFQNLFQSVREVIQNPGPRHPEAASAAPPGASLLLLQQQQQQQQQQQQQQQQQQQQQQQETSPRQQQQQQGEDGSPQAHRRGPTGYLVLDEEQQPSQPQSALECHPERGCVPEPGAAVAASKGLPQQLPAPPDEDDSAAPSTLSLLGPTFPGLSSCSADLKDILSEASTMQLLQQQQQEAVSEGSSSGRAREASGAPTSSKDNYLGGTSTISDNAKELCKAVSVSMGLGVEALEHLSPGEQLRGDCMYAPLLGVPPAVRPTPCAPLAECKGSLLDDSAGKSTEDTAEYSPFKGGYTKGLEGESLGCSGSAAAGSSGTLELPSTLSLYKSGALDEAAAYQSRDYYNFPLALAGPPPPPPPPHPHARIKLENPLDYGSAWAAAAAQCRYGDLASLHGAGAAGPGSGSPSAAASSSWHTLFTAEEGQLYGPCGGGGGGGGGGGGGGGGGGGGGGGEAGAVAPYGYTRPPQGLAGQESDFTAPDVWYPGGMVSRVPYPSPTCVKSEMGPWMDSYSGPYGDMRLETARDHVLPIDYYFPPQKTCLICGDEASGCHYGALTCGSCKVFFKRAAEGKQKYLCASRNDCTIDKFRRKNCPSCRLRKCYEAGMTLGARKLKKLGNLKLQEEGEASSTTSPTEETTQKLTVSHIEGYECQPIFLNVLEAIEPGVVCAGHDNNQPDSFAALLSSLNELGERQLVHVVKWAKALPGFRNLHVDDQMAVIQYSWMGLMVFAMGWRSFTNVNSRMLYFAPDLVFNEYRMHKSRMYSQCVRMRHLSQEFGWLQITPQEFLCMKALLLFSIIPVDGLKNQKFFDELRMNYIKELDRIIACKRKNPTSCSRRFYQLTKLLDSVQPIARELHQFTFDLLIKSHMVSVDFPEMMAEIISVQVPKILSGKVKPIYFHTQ
# [1] = 144 h, proliferation of LNCap/AR cells, 6 days, CCK-8, read-out: IC50
# [2] = percentage of degraded AR at 100 nM, VCaP cells, 16 h, ELISA
# [3] = proliferation of LNCap/AR cells, 6 days, CCK-8, read-out: IC50
Compound,IC50 (LNCaP/AR cells; [1]),inhibition at 0.1 µM (androgen receptor (AR); [2]),other results
[2H]C([2H])([2H])N(C(=O)c1ccc(C#CCCCCOCC(=O)N[C@H](C(=O)N2C[C@H](O)C[C@H]2C(=O)N[C@@H](C)c2ccc(-c3scnc3C)cc2)C(C)(C)C)cc1)[C@H]1C(C)(C)[C@H](Oc2ccc(C#N)c(Cl)c2)C1(C)C [Compound 23],< 0.1 µM,25 to 49%,–
"Cc1ncsc1-c1ccc([C@H](C)NC(=O)C2C[C@@H](O)CN2C(=O)[C@@H](NC(=O)COCCN2CCN(c3ccc4c(c3)CN([C@H]3C(C)(C)[C@H](Oc5ccc(C#N)c(Cl)c5)C3(C)C)C4=O)CC2)C(C)(C)C)cc1 (stereo partly drawn) [Compound 3, (2S,4R)-1-((S)-2-(2-(2-(4-(2-((1R,3R)-3-(3-chloro-4-cyanophenoxy)-2,2,4,4-tetramethylcyclobutyl)-1-oxoisoindolin-5-yl)piperazin-1-yl)ethoxy)acetylamino)-3,3-dimethylbutyryl)-4-hydroxy-N-((S)-1-(4-(4-methylthiazol-5-yl)phenyl)ethyl)pyrrolidine-2-carboxamide]",0.1 to 0.5 µM,50 to 79%,–
"Cc1ncsc1-c1ccc([C@@H](C)NC(=O)[C@H]2C[C@@H](O)CN2C(=O)[C@H](NC(=O)COCCCCCNc2ccc(C(=O)NC3C[C@]4(C)O[C@@]3(C)[C@@H]3C(=O)N(c5ccc(C#N)c(Cl)c5)C(=O)[C@@H]34)c(F)c2)C(C)(C)C)cc1 (stereo partly drawn) [Compound 20, (2R,4S)-1-((2R)-2-(2-((5-((4-(((3aS,4S,7S,7aR)-2-(3-chloro-4-benzonitrile)-4,7-dimethyl-1,3-dioxooctahydro-1H-4,7-epoxyisoindolin-5-yl)carbamoyl)-3-fluorophenyl)amino)pentyl)oxy)acetylamino)-3,3-dimethylbutyryl)-4-hydroxy-N-((R)-1-(4-(4-methylthiazol-5-yl)phenyl)ethyl)pyrrolidine-2-carboxamide]",–,–,"IC50 (LNCaP/AR cells; LNCaP/AR, 144 h): < 0.1 µM; inhibition at 0.1 µM (androgen receptor (AR); VCaP, 16 h): 25 to 49%"
"CC(=O)O[C@@H]1CC(C(=O)NC2(c3ccc(-c4scnc4C)cc3)CC2)N(C(=O)[C@@H](NC(=O)COCCCCCNc2ccc(C(=O)N[C@H]3C(C)(C)[C@H](Oc4ccc(C#N)c(Cl)c4)C3(C)C)cc2)C(C)(C)C)C1 (stereo partly drawn) [Compound 46, (3R,5S)-1-((S)-2-(2-((5-((4-(((1r,3r)-3-(3-chloro-4-cyanophenoxy)-2,2,4,4-tetramethylcyclobutyl)carbamoyl)phenyl)amino)pentyl)oxy)acetamido)-3,3-dimethylbutanol)-5-((1-(4-methylthiazol-5-yl)phenyl)cyclopropyl)carbamoyl) pyrrolidin-3-yl acetate]",–,–,"IC50 (LNCaP/AR cells; LNCaP/AR, 144 h): < 0.1 µM; inhibition at 0.1 µM (androgen receptor (AR); VCaP, 16 h): 25 to 49%"
"(2R,4R)-1-((S)-2-(2-((6-(2-((1R,3R)-3-(3-chloro-4-cyanophenoxy)-2,2,4,4-tetramethylcyclobutyl)-3-oxoisoindolin-5-yl)hex-5-yn-1-yl)oxy)acetylamino)-3,3-dimethylbutyryl)-4-hydroxy-N-((S)-1-(4-(4-methylthiazol-5-yl)phenyl)ethyl) pyrrolidine-2-carboxamide [Compound 5]",–,–,IC50 (LNCaP/AR cells; [3]): < 0.1 µM; % degradation (androgen receptor (AR); [2]): C (49%-25%)
"(2S,4R)-1-((S)-2-(4-(4-((2-((1r,3r)-3-(3-chloro-4-cyanophenoxy)-2,2,4,4-tetramethylcyclobutyl)-1-oxoisoindolin-5-yl)ethynyl)-1H-pyrazol-1-yl)butylamino)-3,3-dimethylbutanol)-4-hydroxy-N-((S)-1-(4-methylthiazol-5-yl)phenyl)ethyl)pyrrolidine-2-carboxamide [Compound 35]",–,–,IC50 (LNCaP/AR cells; [3]): < 0.1 µM; % degradation (androgen receptor (AR)): B (key: A: >80%; B: 79%-50%; C: 49%-25%; D: <25%)
"CC(=O)O[C@@H]1C[C@@H](C(=O)N[C@@H](CO)c2ccc(-c3scnc3C)cc2)N(C(=O)[C@@H](NC(=O)COCCCCC#Cc2ccc3c(c2)CN([C@H]2C(C)(C)[C@H](Oc4ccc(C#N)c(Cl)c4)C2(C)C)C3=O)C(C)(C)C)C1 [Compound 49, (3R,5S)-1-((S)-2-(2-((6-(2-(((1r,3r)-3-(3-chloro-4-cyanophenoxy))-2,2,4,4-tetramethylcyclobutyl)-1-oxoisoindolin-5-yl)hex-5-yn-1-yl)oxy)acetamido)-3,3-dimethylbutyryl)-5-(((R)-2-hydroxy-1-(4-(4-methylthiazol-5-yl)phenyl)ethyl)carbamoyl)pyrrolidin-3-yl acetate]",–,25 to 49%,"IC50 (LNCaP/AR cells; LNCaP/AR, 144 h): < 0.1 µM"
"CC(=O)O[C@@H]1C[C@@H](C(=O)N[C@@H](C)c2ccc(-c3scnc3C)cc2)N(C(=O)[C@@H](NC(=O)COCC(C)OCC#Cc2ccc3c(c2)CN([C@H]2C(C)(C)[C@H](Oc4ccc(C#N)c(Cl)c4)C2(C)C)C3=O)C(C)(C)C)C1 (stereo partly drawn) [Compound 14, (3R,5S)-1-((2S)-2-(2-(2-((3-(2-((1r,3r)-3-(3-chloro-4-cyanophenoxy)-2,2,4,4-tetramethylcyclobutyl)-1-oxoisoindol-5-yl)prop-2-yn-1-yl)oxy)propoxy)acetylamino)-3,3-dimethylbutyryl)-5-((((S)-1-acetic acid (4-(4-methylthiazol-5-yl)phenyl)ethyl)carbamoyl)pyrrolidin-3-yl acetate]",–,50 to 79%,"IC50 (LNCaP/AR cells; LNCaP/AR, 144 h): < 0.1 µM"

# More lines, main results first:
IC50 (LNCaP/AR cells; [1]),inhibition at 0.1 µM (androgen receptor (AR); [2]),Compound,other results
< 0.1 µM,50 to 79%,N#Cc1ccc(O[C@H]2CC[C@H](N3Cc4nc(N5CCC(CN6CCN(c7cc8c(cc7F)C(=O)N(C7CCC(=O)NC7=O)C8)CC6)CC5)ccc4C3=O)CC2)cc1Cl (some centres unmarked) [Compound 204],–
< 0.1 µM,> 80%,"Cc1ncsc1-c1ccc([C@H](CO)NC(=O)[C@@H]2C[C@@H](O)CN2C(=O)[C@@H](NC(=O)COCCCCC#Cc2ccc3c(c2)CN([C@H]2C(C)(C)[C@H](Oc4ccc(C#N)c(Cl)c4)C2(C)C)C3=O)C(C)(C)C)cc1 [Compound 48, (2S,4R)-1-((S)-2-(2-((6-(2-(((1r,3r)-3-(3-chloro-4-cyanophenoxy))-2,2,4,4-tetramethylcyclobutyl)-1-oxoisoindolin-5-yl)hex-5-yn-1-yl)oxy)acetamido)-3,3-dimethylbutyryl)-4-hydroxy-N-((R)-2-hydroxy-1-(4-(4-methylthiazol-5-yl)phenyl)ethyl)pyrrolidine-2-carboxamide]",–
> 1 µM,< 25%,N#Cc1ccc(O[C@H]2CC[C@H](N3Cc4nc(N5CCC(CN6CCN(c7cc8c(cc7F)CN(C7CCC(=O)NC7=O)C8=O)CC6)CC5)ccc4C3=O)CC2)cc1Cl (some centres unmarked) [Compound 203],–
< 0.1 µM,50 to 79%,Cc1ncsc1-c1ccc([C@H](C)NC(=O)[C@@H]2C[C@@H](O)CN2C(=O)[C@@H](NC(=O)CN2CC(CC#Cc3ccc4c(c3)CN([C@H]3C(C)(C)[C@H](Oc5ccc(C#N)c(Cl)c5)C3(C)C)C4=O)C2)C(C)(C)C)cc1 [Compound 43],–
> 1 µM,< 25%,"[2H]C([2H])([2H])N(C(=O)c1ccc(N2CCC(CN3CCN(c4cc5c(cc4F)CN(C4CCC(=O)NC4=O)C5=O)CC3)CC2)nc1)[C@H]1C(C)(C)[C@H](Oc2ccc(C#N)c(Cl)c2)C1(C)C (some centres unmarked) [Compound 215, N-((1r,3r)-3-(3-chloro-4-cyanophenoxy)-2,2,4,4-tetramethylcyclobutyl)-6-(4-((4-(2-(2,6-dioxopiperidin-3-yl)-6-fluoro-3-oxoisoindolin-5-yl)piperazin-1-yl)methyl)piperidin-1-yl)-N-(methyl-d3)nicotinamide]",–
> 1 µM,< 25%,N#Cc1ccc(O[C@H]2CC[C@H](N3Cc4nc(N5CCC(CN6CCN(c7cccc8c7C(=O)N(C7CCC(=O)NC7=O)C8=O)CC6)CC5)ccc4C3=O)CC2)cc1Cl (some centres unmarked) [Compound 217],–
0.1 to 0.5 µM,> 80%,"[2H]C([2H])([2H])N(C(=O)c1ccc(N2CCC(CN3CCN(c4cc5c(cc4F)C(=O)N(C4CCC(=O)NC4=O)C5)CC3)CC2)nc1)[C@H]1C(C)(C)[C@H](Oc2ccc(C#N)c(Cl)c2)C1(C)C (some centres unmarked) [Compound 216, N-((1r,3r)-3-(3-chloro-4-cyanophenoxy)-2,2,4,4-tetramethylcyclobutyl)-6-(4-((4-(2-(2,6-dioxopiperidin-3-yl)-6-fluoro-1-oxoisoindolin-5-yl)piperazin-1-yl)methyl)piperidin-1-yl)-N-(methyl-d3)nicotinamide]",–
> 1 µM,25 to 49%,CC1(C)[C@H](NC(=O)c2ccc(N3CCC(CN4CCN(c5cc6c(cc5F)C(=O)N(C5CCC(=O)NC5=O)C6)CC4)CC3)nc2)C(C)(C)[C@H]1Oc1ccc(C#N)c(Cl)c1 (some centres unmarked) [Compound 213],–
